# Assay results: paper PMC5618334, “Hydrocarbon constrained peptides – understanding preorganisation and binding affinity” (Chemical Science, 2016)
# Where a SMILES comes first, the peptide text is derived from it. [ ]: non-standard residue; d: D form. The star is where a group is joined. FITC = O=C1OC2(c3ccc(O)cc3Oc3cc(O)ccc32)c2ccc(NC(=S)*)cc21; Nle = CCCC[C@H](N)C(=O)O; Ahx = NCCCCCC(=O)O
# Experiments:
# Bcl-xL/BODIPY-BAK = molecular target: T1, Bcl-xL/BODIPY-BAK (Homo sapiens, UniProt Q07817, DEL26-81); experiment: Fluorescence anisotropy competition assay, inhibition of Bcl-xL/BODIPY-BAK interaction; assay type: binding
# T1 construct: pET28a His-SUMO Bcl-xL (1-198, missing 26-81); His-SUMO (N, cleaved yes); made in house; host or cells: E. coli Rosetta 2
# Experimental: (§1) To profile the binding behaviour of the constrained peptides we tested them in both competition displacement assays and direct binding assays. […] Of particular interest was the potential for the introduction of a constraint to have differential effects on protein specificity/selectivity. […] We next tested the constrained peptides in inhibition assays (Fig. 3a and b and Table 2). […]
# (§2) constructs were over-expressed in the E. coli strain Rosetta 2. Cells were resuspended in 50mM TRIS pH 8.0, 500mM NaCl, 15mM Imidazole and lysed by sonication. The clarified lysate was applied to a 5ml HisTrap column equilibrated with 50mM TRIS pH 8.0, 500mM NaCl, 15mM Imidazole. The HisTrap was then washed with 10 CV of 50mM TRIS pH 8.0, 500mM NaCl, 15mM Imidazole followed by 10 CV 50mM TRIS pH 8.0, 500mM NaCl, 25mM Imidazole. The fusion proteins were eluted in 50mM TRIS pH 8.0, 500mM NaCl, 300mM Imidazole. TheHis-SUMO tag was removed in overnight in dialysis into 50mM TRIS pH 8.0, 250mM NaCl in the presence of Smt3 protease, Ulp1, overnight at 4°C. Uncleaved material and His-SUMO were removed by reapplication of the sample to a HisTrap in 50mM TRIS pH 8.0, 250mM NaCl and the flow through containing Mcl- […]
# (§3) The proteins were then filtered before further purification on a Superdex 75 (GE […]
# (§4) proteins were concentrated and stored at -80°C.
# (§5) The assays were performed as detailed in 10, 11.
# (§6) The buffers used for fluorescence anisotropy were either phosphate buffer (40 mM sodium phosphate, 200 mM sodium chloride, 0.02 mg ml-1 bovine serum albumin, pH 7.50) or Tris buffer (50 mM Tris, 140 mM sodium chloride, pH 7.50). Phosphate buffer was used for all competition assays […]
# (§7) Assays were run in 96 or 384 well Optiplates and were scanned using a Perkin Elmer EnVisionTM 2103 MultiLabel plate reader. Fluorescein labelled peptides used an excitation and emission wavelength of 480 (30) nm and 535 (40) nm respectively (dichroic mirror 505 nm) whilst BODIPY labelled peptides used an excitation and emission wavelength of 531 (25) nm and 595 (60) nm respectively (dichroic mirror 555 nm), […]
# (§8) Plates were read after 1 h […]
# (§9) respectively. Plates were read after 1 h. […]
# (§10) Processing of fluorescence anisotropy data
# (§11) Fluorescence anisotropy data was processed using Microsoft Excel to calculate intensity, anisotropy […]
# (§12) b (λ(rmax − r) + r − rmin) r = anisotropy, I = total intensity, P = perpendicular intensity, S = parallel intensity, Lb = fraction ligand bound, λ = Ibound/Iunbound , G = 1= instrumental factor. […]
# (§13) the calculation of IC50 and EC50) or to the Kd model for the extraction of Kd values:
# (§14) Where for the logisitic model; y = r = anisotropy, xo = mid-point of the curve between the rmax and rmin […]
# (§15) For the Kd model; y = Lb*[FL], K = Kd, [FL] = Concentration of fluorescent ligand.
# Mcl-1 = molecular target: T2, Mcl-1 (Homo sapiens, UniProt Q07820); experiment: Fluorescence anisotropy direct binding assay with Mcl-1
# T2 construct: His-SUMO (N, cleaved yes); made in house; host or cells: E. coli Rosetta 2
# Experimental: (§16) Direct titration experiments were also performed for FITC labelled BID peptides (Fig. 5). […]
# as §2, §3, §4, §5, §6, §7, §8
# (§17) respectively. Plates were read after 1 h.
# (§18) For all variants of the labelled BID peptides (FITC-BID-WT,FITC-BID-MM, FITC-BID-DM and FITC-BID-Aib), the direct binding assays were performed in Tris Buffer in 384 well plates. In protein titrations, the protein concentration started from between 1-10 µM and was diluted over 24 points in a 3/4 dilution regime, with the concentration of the labelled peptide fixed at 25-100 nM. In the peptide titrations, the concentration of the labelled peptides started from 5 µM and were diluted in a 2/3 regime over 24 points, with the concentration of the protein fixed at 50 nM. Plates were read after 2 hours of incubation, and read again after 4 and 18 hours to ensure complete equilibration.
# as §10, §11, §12, §13, §14, §15
# Bcl-xL = molecular target: T3, Bcl-xL (Homo sapiens, UniProt Q07817, DEL26-81); experiment: Fluorescence anisotropy direct binding assay with Bcl-xL; settings: for EC50: Bcl-xL titrated into FITC-labelled peptide (25-100 nM), 50 mM tris, 140 mM NaCl, pH 7.50, logistic fit
# T3 construct: pET28a His-SUMO Bcl-xL (1-198, missing 26-81); made in house; host or cells: E. coli Rosetta 2
# Experimental: as §16, §2, §3, §4, §5, §6, §7, §8, §17, §18, §10, §11, §12, §13, §14, §15
# Mcl-1/FITC-NOXA-B = molecular target: T4, Mcl-1/FITC-NOXA-B (Homo sapiens, UniProt Q07820); experiment: Fluorescence anisotropy competition assay, inhibition of Mcl-1/FITC-NOXA-B interaction; assay type: binding; settings: Table S1, unconstrained BH3 peptides; FA competition; Mcl-1 150 nM, FITC-NOXA-B 50 nM; phosphate buffer pH 7.50; read after 1 h
# T4 construct: His-SUMO (N, cleaved yes); made in house; host or cells: E. coli Rosetta 2
# Experimental: as §1, §2, §3, §4, §5, §6, §7, §8, §9, §10, §11, §12, §13, §14, §15
# T1 sequence (Q07817 with tags, fused parts or gaps DEL26-81): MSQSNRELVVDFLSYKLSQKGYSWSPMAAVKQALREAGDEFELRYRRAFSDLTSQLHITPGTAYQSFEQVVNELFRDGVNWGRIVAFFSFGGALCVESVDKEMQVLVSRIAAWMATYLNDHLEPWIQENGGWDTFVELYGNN
# T3 sequence (Q07817 with tags, fused parts or gaps DEL26-81): as above
# T2 sequence (Q07820 172-327): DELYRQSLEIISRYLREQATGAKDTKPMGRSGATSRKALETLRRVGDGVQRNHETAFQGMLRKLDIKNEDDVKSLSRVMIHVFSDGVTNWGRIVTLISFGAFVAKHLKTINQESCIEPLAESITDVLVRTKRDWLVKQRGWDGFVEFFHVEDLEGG
# T4 sequence (Q07820 172-327): as above
Compound,IC50 (Bcl-xL/BODIPY-BAK) [nM],EC50 (Mcl-1) [nM],EC50 (Bcl-xL; FA direct binding) [nM],also measured
CCCC[C@H](NC(=O)C(C)(C)NC(=O)[C@H](CC(=O)O)NC(=O)CNC(=O)[C@@H](NC(=O)C(C)(C)NC(=O)[C@H](C)NC(=O)[C@H](CC(C)C)NC(=O)[C@H](Cc1c[nH]cn1)NC(=O)[C@H](CCCNC(=N)N)NC(=O)[C@H](C)NC(=O)[C@@H](NC(=O)[C@H](CC(N)=O)NC(=O)[C@H](CCCNC(=N)N)NC(=O)[C@@H](NC(=O)[C@@H](NC(=O)[C@H](CC(=O)O)NC(=O)[C@H](CCC(=O)O)NC(C)=O)[C@@H](C)CC)[C@@H](C)CC)[C@@H](C)CC)C(C)C)C(=O)N[C@@H](CC(=O)O)C(=O)N[C@@H](CCCNC(=N)N)C(=O)N[C@@H](CO)C(=O)N[C@H](C(=O)N[C@@H](Cc1c[nH]c2ccccc12)C(N)=O)[C@@H](C)CC [BID-AIB],1140 ± 50,,,
CC[C@H](C)[C@H](NC(C)=O)C(=O)N[C@@H](Cc1c[nH]c2ccccc12)C(=O)N[C@H](C(=O)N[C@@H](C)C(=O)N[C@@H](CCC(N)=O)C(=O)N[C@@H](CCC(=O)O)C(=O)N[C@@H](CC(C)C)C(=O)N[C@@H](CCCNC(=N)N)C(=O)N[C@@]1(C)CCCC=CCCC[C@@](C)(C(=O)N[C@@H](Cc2ccccc2)C(=O)N[C@@H](CC(N)=O)C(=O)N[C@@H](C)C(=O)N[C@@H](Cc2ccc(O)cc2)C(=O)N[C@@H](Cc2ccc(O)cc2)C(=O)N[C@@H](C)C(=O)N[C@@H](CCCNC(=N)N)C(=O)N[C@@H](CCCNC(=N)N)C(N)=O)NC(=O)[C@H](CC(=O)O)NC(=O)CNC(=O)[C@H]([C@@H](C)CC)NC1=O)[C@@H](C)CC [BIM-DM],4000 ± 620,,,
CCCC[C@H](NC(=O)[C@]1(C)CCCC=CCCC[C@](C)(NC(=O)[C@H](C)NC(=O)[C@H](CC(C)C)NC(=O)[C@H](Cc2c[nH]cn2)NC(=O)[C@H](CCCNC(=N)N)NC(=O)[C@H](C)NC(=O)[C@@H](NC(=O)[C@H](CC(N)=O)NC(=O)[C@H](CCCNC(=N)N)NC(=O)[C@@H](NC(=O)[C@@H](NC(=O)[C@H](CC(=O)O)NC(=O)[C@H](CCC(=O)O)NC(=O)CCNC(=S)Nc2ccc3c(c2)C(=O)OC32c3ccc(O)cc3Oc3cc(O)ccc32)[C@@H](C)CC)[C@@H](C)CC)[C@@H](C)CC)C(=O)N[C@@H](C(C)C)C(=O)NCC(=O)N[C@@H](CC(=O)O)C(=O)N1)C(=O)N[C@@H](CC(=O)O)C(=O)N[C@@H](CCCNC(=N)N)C(=O)N[C@@H](CO)C(=O)N[C@H](C(=O)N[C@@H](Cc1c[nH]c2ccccc12)C(N)=O)[C@@H](C)CC [FITC-BID-DM],,129 ± 3,159 ± 13,
CC[C@H](C)[C@H](NC(=O)[C@H](CCCNC(=N)N)NC(=O)[C@H](CCCNC(=N)N)NC(=O)[C@H](CC(C)C)NC(=O)[C@H](CCC(N)=O)NC(=O)[C@H](C)NC(=O)[C@H](CS)NC(=O)[C@H](CCC(=O)O)NC(=O)[C@H](CC(=O)O)NC(=O)[C@H](CCCCN)NC(=O)[C@H](CC(C)C)NC(=O)[C@H](CC(=O)O)NC(=O)[C@H](C)NC(=O)[C@@H]1CCCN1C(=O)CCCCCNC(=S)Nc1ccc2c(c1)C(=O)OC21c2ccc(O)cc2Oc2cc(O)ccc21)C(=O)NCC(=O)N[C@@H](CC(=O)O)C(=O)N[C@@H](CCCCN)C(=O)N[C@H](C(=O)N[C@@H](CC(N)=O)C(=O)N[C@@H](CC(C)C)C(N)=O)C(C)C [FITC-NOXA-B],,,,"Kd (Mcl-1): 18.7 ± 0.9 nM; Bcl-xL Kd (Bcl-xL; FA direct binding, labelled unconstrained BH3 peptide, Kd model (Table S1), phosphate buffer for BODIPY-BAK and FITC-NOXA-B, Tris buffer for FITC-BID): no binding"
"Ac-LWAAQRYGRELRRMSDEFEGSFDKL-NH2 [BAD, reference compound]",140 ± 15,,,Mcl-1/ FITC-NOXA-B IC50 (Mcl-1/FITC-NOXA-B): no inhibition

# The next lines start with results.
IC50 (Bcl-xL/BODIPY-BAK) [nM],EC50 (Mcl-1) [nM],EC50 (Bcl-xL; FA direct binding) [nM],Compound,also measured
,153 ± 12,186 ± 24,CCCC[C@H](NC(=O)[C@@H]1CCC/C=C\CCC[C@H](NC(=O)[C@H](C)NC(=O)[C@H](CC(C)C)NC(=O)[C@H](Cc2c[nH]cn2)NC(=O)[C@H](CCCNC(=N)N)NC(=O)[C@H](C)NC(=O)[C@@H](NC(=O)[C@H](CC(N)=O)NC(=O)[C@H](CCCNC(=N)N)NC(=O)[C@@H](NC(=O)[C@@H](NC(=O)[C@H](CC(=O)O)NC(=O)[C@H](CCC(=O)O)NC(=O)CCNC(=S)Nc2ccc3c(c2)C(=O)OC32c3ccc(O)cc3Oc3cc(O)ccc32)[C@@H](C)CC)[C@@H](C)CC)[C@@H](C)CC)C(=O)N[C@@H](C(C)C)C(=O)NCC(=O)N[C@@H](CC(=O)O)C(=O)N1)C(=O)N[C@@H](CC(=O)O)C(=O)N[C@@H](CCCNC(=N)N)C(=O)N[C@@H](CO)C(=O)N[C@H](C(=O)N[C@@H](Cc1c[nH]c2ccccc12)C(N)=O)[C@@H](C)CC [FITC-BID-MM],
,98 ± 8.9,79 ± 6,CCCC[C@H](NC(=O)[C@H](CO)NC(=O)[C@H](CC(=O)O)NC(=O)CNC(=O)[C@@H](NC(=O)[C@H](CCC(N)=O)NC(=O)[C@H](C)NC(=O)[C@H](CC(C)C)NC(=O)[C@H](Cc1c[nH]cn1)NC(=O)[C@H](CCCNC(=N)N)NC(=O)[C@H](C)NC(=O)[C@@H](NC(=O)[C@H](CC(N)=O)NC(=O)[C@H](CCCNC(=N)N)NC(=O)[C@@H](NC(=O)[C@@H](NC(=O)[C@H](CC(=O)O)NC(=O)[C@H](CCC(=O)O)NC(=O)CCCCCNC(=S)Nc1ccc2c(c1)C(=O)OC21c2ccc(O)cc2Oc2cc(O)ccc21)[C@@H](C)CC)[C@@H](C)CC)[C@@H](C)CC)C(C)C)C(=O)N[C@@H](CC(=O)O)C(=O)N[C@@H](CCCNC(=N)N)C(=O)N[C@@H](CO)C(=O)N[C@H](C(=O)N[C@@H](Cc1c[nH]c2ccccc12)C(N)=O)[C@@H](C)CC [FITC-BID-WT] ({FITC-Ahx}-EDIIRNIARHLAQVGDS[Nle]DRSIW-NH2),Kd (Mcl-1): 50 ± 20 nM; Kd (Bcl-xL): 21 ± 6.6 nM
